The source of these data is the pKa sets of Baltruschat and Czodrowski (2020).

By pKa is commonly meant the pH at which an ionisable group is half protonated. Low readings indicate a group that gives up its proton readily, high ones a group that holds its proton tightly. On to `CC1=NS(=O)(=O)c2ncccc2N1`, for which, under “acidic group”, the pKa is 7.58. For the compound `CC(=O)OCC1CC2CCN1CC2` (centres undefined), the pKa (basic group) stood at 9.88. For the compound `Nc1ccc2c([N+](=O)[O-])cccc2c1`, for the setting “basic group”, the pKa was 3.16.

For the compound `CCC[NH2+]CCS`, the pKa (acidic group) turned out to be 7.92. Take `COC(=O)CC(=O)c1cccnc1`: the pKa (acidic group) was 8.98. With `CN(C)c1ccc2c(c1)Sc1cc(N(C)C)ccc1N2`, the pKa (basic group) is 5.53. Same read-out and setting: under `CNC(=N)N` stands 13.4. For the compound `Cc1ncc(CO)c(C)c1O`, the pKa by setting is: (acidic group) 9.98; (basic group) 5.4. For `On1nnc2cc(Cl)ccc21`, where the note is “acidic group”, the pKa stood at 4.18. On to `Cc1ccnc([S-])[nH+]1`, for which the pKa (basic group) worked out at 2.2.

Where the note is “acidic group”, `CCN(CC)C(=S)NC(=O)c1ccc(C)cc1` came in with a pKa of 8.77. For `Nc1nccc([O-])n1`, the pKa (basic group) was 9.42. Consider `Nc1c2c(ncn2Cc2ccccc2)nc[n+]1[O-]`, for which the pKa reads like this: (acidic group) 11; (basic group) 2.4. In turn, `C=CC(Cl)C(=O)O` (centres undefined) had a pKa (acidic group) of 2.54. Turning to `C[n+]1ccc2cccc(O)c2c1`, for the setting “acidic group”, the pKa stood at 5.81.

For the setting “acidic group”, `C[N+](C)(C)c1ccc(O)cc1` had a pKa of 8.25. Same read-out and setting: under `O=C(O)CNC(=O)CNS(=O)(=O)c1ccccc1` stands 3.55. In the case of `[S-]c1ccnc([S-])n1`, the pKa (basic group) was found to be 11.2. Turning to `O=[PH]([O-])C(NCc1ccccn1)c1ccccc1O` (centres undefined), the pKa runs as follows: (acidic group) 12; (basic group) 8.08. Under “basic group”, `NCCC(=O)NC(Cc1c[nH]cn1)C(=O)[O-]` (centres undefined) showed a pKa of 9.48.

`CC(O)C(C(=O)O)c1ccc(C2CCCCC2)cc1` (centres undefined) came in with a pKa (acidic group) of 4.21. Where the note is “acidic group”, `NC(=O)CN(CCN(CC(N)=O)Cc1ccccc1O)Cc1ccccc1[O-]` gave a pKa of 11. Take `C[C@H]1CCCC[C@@H]1C(=O)O`: the pKa (acidic group) stood at 4.74.

Compound `CN1C2CCC(CC2)N1C` gave a pKa (basic group) of 7.14. Still for that read-out and setting: under `N=C(N)Nc1ccccc1` stands 10.8. As for `Nc1cccc(O)c1`, the pKa was 9.85 (acidic group) and 4.29 (basic group). In turn, `CC(=O)c1cccc(O)c1` displayed a pKa (acidic group) of 9.12. Compound `O=c1cccc(O)cc1` registered a pKa (acidic group) of 5.64.

`O=[PH]([O-])C([NH2+]Cc1ccncc1)c1ccccc1O` (centres undefined): the pKa (basic group) stood at 3.25.

In the case of `C1CN2C(=N1)N1CCN=C1N1CCN=C21`, the pKa (basic group) was 5.8. Consider `Clc1nnn[nH]1`, for which the pKa (acidic group) was 2.07. Same read-out and setting: under `CCCc1cc(Cl)cc(Cl)c1O` stands 8.1. In turn, `CN(C)CCC[NH+](C)C` yielded a pKa (basic group) of 7.73. Same read-out and setting: under `Nc1nc2ccccc2nc1N` stands 4.7. Take `Oc1nc2cc3c(cc2[nH]1)CCCC3`: the pKa (acidic group) is 12.2. Take `CSc1ccc(O)cc1`: where the note is “acidic group”, the pKa came out at 9.5.

With `Cc1cc(C)c(O)cc1C`, under “acidic group”, the pKa amounted to 10.6.

For `COc1ccc(N)cc1C(=O)N[C@@H]1C[C@H]2CC[C@@H](C1)N2Cc1ccccc1`, for the setting “basic group”, the pKa worked out at 8.86. The compound `CC(C)(/C=C/C(=O)O)c1cc([N+](=O)[O-])ccc1O` had a pKa (acidic group) of 4.26.

Regarding `COC(=O)CC(=N/O)/C(C)=N/O`, where the note is “acidic group”, the pKa amounted to 9.77. On to `CCP(=O)(CC)CC=O`, for which the pKa (acidic group) was 10.9. Same read-out and setting: under `O=P1(O)CCCCC1` stands 2.73.

For `NCCCCCO`, the pKa (basic group) is 10.5. With `Cn1cnc2ncncc21`, the pKa (basic group) was 2.29. For `COc1ccc([N+](=O)[O-])c(CN)c1`, the pKa (basic group) stood at 8.72.

Under “basic group”, `CC(C#N)CN` (centres undefined) came in with a pKa of 7.75.

`C[C@]12CC[C@@H]3c4ccc(O)cc4CC[C@H]3[C@@H]1C[C@@H](O)[C@@H]2O` yielded a pKa (acidic group) of 10.8.

`N=C(c1ccccc1)c1cccc(Cl)c1` yielded a pKa (basic group) of 5.69. Regarding `[NH3+]C(Cc1ccccc1)c1nnn[nH]1` (centres undefined), the pKa (acidic group) worked out at 1.93.

Take `O=C(O)c1csc(Br)c1`: the pKa (acidic group) stood at 3.7. `CC(=N\O)/C(CN(C)C)=N\O` displayed a pKa (acidic group) of 10.6 and a pKa (basic group) of 8.4. On to `CCCN(CCC)CCc1c[nH]c2ccccc12`, for which the pKa (basic group) was 8.6. Still for that read-out and setting: under `NCC(O)CN` stands 9.64.

Regarding `Cc1c(Cc2c(C)n(C)[n+](-c3ccccc3)c2O)c(=O)n(-c2ccccc2)n1C`, under “acidic group”, the pKa was found to be 1.51. Consider `CCC#CC(=O)O`, for which, under “acidic group”, the pKa was 2.6. On the same count and under the same terms, under `Oc1cccc[n+]1OCc1ccccc1` stands -1.7.

Under “basic group”, `O=C([O-])CC(c1ncc[nH]1)c1[nH]cc[nH+]1` registered a pKa of 4.62.

On to `C=CC(=O)NCCCN(C)C`, for which the pKa (basic group) was found to be 9.23.

The compound `C=CCC(C)(CN(CC)CC)OC(=O)CCC` (centres undefined) yielded a pKa (basic group) of 8.5. As to `CNc1ccnc([S-])n1`, the pKa (basic group) amounted to 11.1. Under “acidic group”, `CC(C)CCC([NH3+])C(=O)O` (centres undefined) came in with a pKa of 3.06. `CN(C)c1cccc([N+](C)(C)C)c1`: the pKa (basic group) is 2.6.

Consider `CCc1ccc(C)nn1`, for which the pKa (basic group) was determined as 4.17. Where the note is “acidic group”, `Cc1ccc(S(=O)(=O)NCC[NH+](CC(=O)[O-])CC(=O)[O-])cc1` had a pKa of 7.86. The compound `Cc1ccccc1/N=C/N(C)C` had a pKa (basic group) of 8.27. With `CN1C[C@H](C(=O)[O-])C[C@@]2(O)c3cccc4[nH]cc(c34)C[C@@H]12`, the pKa (basic group) is 8.33. In turn, `CCOc1ccc2[nH]cnc2c1` yielded a pKa (basic group) of 5.57. In the case of `CCCCCN(CC(C)O)CC(O)CC` (centres undefined), where the note is “basic group”, the pKa stood at 9.1. As to `O=C(O)C[C@@H]1NC(=O)CNC1=O`, under “acidic group”, the pKa is 3.93.

For `CC(C)NNC1CC[NH+](C)CC1`, the pKa (basic group) came out at 6.32.

With `O=C(O)c1ccc(Cl)s1`, for the setting “acidic group”, the pKa is 3.41.

In the case of `NCc1ccccc1O`, where the note is “basic group”, the pKa came to 8.89.

Consider `Fc1ccc(S)cc1`, for which the pKa (acidic group) came to 6.35. `CC1=C(CC(C)NCC(O)c2ccccc2)CCC1(C)C` (centres undefined) had a pKa (basic group) of 8.84. For the setting “acidic group”, `O=C(O)c1ccc([N+](=O)[O-])o1` came in with a pKa of 2.06. For the compound `NC(=O)/C(=N/O)c1ccccc1`, where the note is “acidic group”, the pKa was found to be 9.55. Same read-out and setting: under `NC1=[NH+][C@H](C(=O)O)[C@@H]([C@H](O)C[NH3+])N1` stands 2.4. With `NNC(=O)c1ccccc1`, the pKa by setting is: (acidic group) 12.4; (basic group) 3.02.

Take `CNC(N)=O`: under “basic group”, the pKa was 0.8. `Nc1ccc(S(=O)(=O)Nc2cccc[n+]2[O-])cc1`: the pKa (acidic group) was determined as 5.2. For the setting “basic group”, `CP(=O)(Cc1ccccc1)c1ccccc1` (centres undefined) came in with a pKa of -1.82. Compound `Cc1ccc2c(c1)NCCN2` yielded a pKa (basic group) of 4.97.

Turning to `Cc1cc(C)cc(O)c1`, for the setting “acidic group”, the pKa worked out at 10.1. For the setting “acidic group”, `CC(C(N)=O)S(N)(=O)=O` (centres undefined) returned a pKa of 9.86.

For `NNC(=O)c1ccccc1[NH3+]`, the pKa (basic group) came out at 1.85. Regarding `CC=O`, the pKa is 16.8 (acidic group) and -0.57 (basic group). `SCC[NH2+]Cc1ccccc1` yielded a pKa (acidic group) of 7.86.

Compound `O=C([O-])[C@@H]1CC[C@@H](C(=O)O)[Se]1` had a pKa (acidic group) of 4.35.

`CC1=NCCCCN1`: under “basic group”, the pKa is 12.7.

With `CN(C)CCCCC(=O)Oc1cccc([N+](=O)[O-])c1`, the pKa (basic group) was 10.1. `C=C(C)C(=O)OCCNCC` gave a pKa (basic group) of 9.15. On to `CC/C=C/CC1=[NH+]C(C(=O)O)[C@@H]2SC(C)(C)C(C(=O)O)N12` (some centres undefined), for which the pKa (acidic group) is 2.4.

For the compound `O=C(Cc1ccccc1Nc1c(Cl)cccc1Cl)OCCCCN1CCOCC1`, the pKa (basic group) was 8.4.

`Cn1c[nH+]cc1C[C@H](NC(=O)CC[NH3+])C(=O)O` displayed a pKa (acidic group) of 2.64.

Compound `O=[N+]([O-])c1cccc(/C=N/O)c1` gave a pKa (acidic group) of 10.2. In turn, `CN(C)Cc1ccccc1` registered a pKa (basic group) of 8.97.

Regarding `CC1(C)OC(=O)NC1=O`, the pKa (acidic group) was found to be 6.15. On the same count and under the same terms, under `CCNC(O)=S` stands 0.92; under `Fc1cccc(NC(=S)c2ccc(Cl)cc2)c1`, 10.2. In turn, `Cc1nc(-c2ccccc2)[nH]c1C` came in with a pKa (basic group) of 7.

The compound `Cc1ccn(-c2ccccn2)n1` gave a pKa (basic group) of 1.36.

`[O-]c1ccc(-c2ccc(O)cc2)cc1`: the pKa (acidic group) was 14.1. `CCN(CC)[C@H]1CCC[C@@H]1N(C)C` yielded a pKa (basic group) of 9.91. Regarding `NC(=O)Nc1ncnc2nc[nH]c12`, the pKa came to 9.95 (acidic group) and 2.35 (basic group). In the case of `N#CC(CC(=O)O)Cc1ccccc1` (centres undefined), where the note is “acidic group”, the pKa is 3.91. The same measure, in the same setting: under `Cc1c(C)c(O)c(C)c(C)c1[O-]` stands 12.8. The compound `Cc1cc(-n2[nH+]c(C)cc2C)[nH]n1` registered a pKa (basic group) of -2.4. Consider `O=[N+]([O-])c1cccc([Se](=O)O)c1`, for which the pKa (acidic group) was 4.07. For the compound `CCOCCn1c(N2CCC[NH+](CCCCn3cc(C(=O)O)cn3)CC2)[nH+]c2ccccc21`, the pKa (acidic group) was 3.7.

For the compound `Cc1cc2ncn([C@H]3O[C@@H](CO)[C@H](O)[C@@H](O)[C@@H]3O)c2cc1C`, where the note is “basic group”, the pKa was found to be 4.63.

`O=C([O-])/C=N/O` returned a pKa (acidic group) of 10.2.

Turning to `[O-][n+]1cnc2[nH]cnc2c1NCc1ccccc1`, the pKa reads like this: (acidic group) 8.22; (basic group) 2.66. In turn, `c1nc(Cc2c[nH]c(Cc3nc(Cc4cnc[nH]4)c[nH]3)n2)c[nH]1` yielded a pKa (basic group) of 7.49. Turning to `Oc1cccc2ccncc12`, the pKa reads like this: (acidic group) 8.4; (basic group) 5.66. Where the note is “acidic group”, `O=C([O-])c1ccc(O)c([N+](=O)[O-])c1` yielded a pKa of 6.41. As for `CCN(CC)Cc1ccccc1O`, the pKa (acidic group) amounted to 10.8 and the pKa (basic group) amounted to 8.81. In the case of `CC(C)[C@H]1C[NH2+][C@H](C(=O)O)[C@H]1CC(=O)O`, the pKa (acidic group) was found to be 2.12. As for `c1ccc(-c2ccc3ncc(C[NH+]4CCOCC4)n3n2)cc1`, the pKa (basic group) came to 2.91. Turning to `N/N=C(\N)c1ncnc2nc[nH]c12`, the pKa (acidic group) came to 10. Where the note is “acidic group”, `NC(=O)C(CC(=O)O)c1ccccc1` (centres undefined) had a pKa of 4.23. `C[NH2+]CCNCCN` registered a pKa (basic group) of 9.57.

Where the note is “basic group”, `C#CCNCC#C` registered a pKa of 6.08. Compound `CN1CCC=C(C#N)C1` yielded a pKa (basic group) of 6.35. For the compound `O=C([O-])CNC(=O)c1cccc(O)c1O`, the pKa (acidic group) turned out to be 7.7.

As for `Cc1cc(N)ccc1C[NH3+]`, the pKa (basic group) came out at 4.26. As for `C=C(C)C(=O)OC(C)CN(C)C` (centres undefined), the pKa (basic group) was 7.96.

For `CCCP(=O)(O)CCC`, where the note is “acidic group”, the pKa turned out to be 3.33. Under “basic group”, `O=C1N[C@@H](Cc2c[nH+]c[nH]2)C(=O)N[C@H]1Cc1cnc[nH]1` registered a pKa of 5.56. As to `COc1ccccc1-c1nnn[nH]1`, the pKa (acidic group) turned out to be 4.8. Compound `CCCCN1CCCC1C` (centres undefined) gave a pKa (basic group) of 10.7. On the same count and under the same terms, under `C=C(C)C(=O)NC(C)(C)CCN(C)C` stands 9.37. In turn, `N#CC(C#N)Cc1ccc(Cl)cc1` showed a pKa (acidic group) of 11.5. Turning to `O=C1/C(=N/O)C=Cc2ccccc21`, under “acidic group”, the pKa is 7.52.
